Data reported in ChEMBL document CHEMBL1201862, “PubChem BioAssay data set” (2004).
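Compound exposure: 48 hours, 5 concentrations, 96-well plates. Here, GI50 denotes the concentration required for 50% inhibition of growth.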 Active and inactive are the calls of the source. No stated cut-off is given here; in the data, active = GI50 up to about 1.1 µM and inactive = higher.

What was measured:
Assay in all cases: growth of human tumour cells (NCI), 48 h
[1] = test system: SNB-19
[2] = test system: PC-3
[3] = test system: MDA-MB-231
[4] = test system: TK-10
[5] = test system: SF-539
[6] = test system: HCT-15
[7] = test system: SN12C
[8] = test system: HOP-92
[9] = test system: MDA-MB-435
[10] = test system: NCI-H460
[11] = test system: MCF7
[12] = test system: U-251
[13] = test system: BT-549
[14] = test system: SK-MEL-2
[15] = test system: HOP-62
[16] = test system: MOLT-4
[17] = test system: SW-620
[18] = test system: NCI-H522
[19] = test system: LOX IMVI

| SMILES | GI50 [1] | GI50 [2] | GI50 [3] | GI50 [4] | GI50 [5] | GI50 [6] [µM] | GI50 [7] | GI50 [8] | GI50 [9] | GI50 [10] | GI50 [11] | GI50 [12] | GI50 [13] | GI50 [14] | GI50 [15] | GI50 [16] | GI50 [17] | GI50 [18] | GI50 [19] |
| --- | --- | --- | --- | --- | --- | --- | --- | --- | --- | --- | --- | --- | --- | --- | --- | --- | --- | --- | --- |
| CC1=CSC(O)(c2ccc(Cl)cc2)c2noc(=O)n21 (centres undefined) | > 100 µM (inactive) | 71.1 µM (inactive) | > 100 µM (inactive) | > 100 µM (inactive) | > 100 µM (inactive) | 72.9 | > 100 µM (inactive) | 94.8 µM (inactive) | 30.1 µM (inactive) | 51.2 µM (inactive) | 66.4 µM (inactive) | > 10 µM (inactive) | > 100 µM (inactive) | 85.9 µM (inactive) | > 100 µM (inactive) | > 100 µM (inactive) | > 100 µM (inactive) | – | – |
| COc1cccc(CC(=O)N2CCN(CCCc3ccccc3)CC2)c1 | > 100 µM (inactive) | > 100 µM (inactive) | > 100 µM (inactive) | 78.7 µM (inactive) | > 100 µM (inactive) | 45.9 | > 100 µM (inactive) | 25.2 µM (inactive) | 70.6 µM (inactive) | > 100 µM (inactive) | 60.3 µM (inactive) | > 100 µM (inactive) | 33.8 µM (inactive) | > 100 µM (inactive) | > 100 µM (inactive) | 54.7 µM (inactive) | > 100 µM (inactive) | 57.9 µM (inactive) | > 100 µM (inactive) |
| CCc1ncc(CO)n1Cc1cccc2ccccc12 | > 100 µM (inactive) | > 100 µM (inactive) | > 100 µM (inactive) | 99.5 µM (inactive) | > 100 µM (inactive) | > 100 | > 100 µM (inactive) | 86.1 µM (inactive) | > 100 µM (inactive) | > 100 µM (inactive) | > 100 µM (inactive) | > 100 µM (inactive) | > 100 µM (inactive) | > 100 µM (inactive) | > 100 µM (inactive) | – | > 100 µM (inactive) | > 100 µM (inactive) | – |
| Cc1ccc(-c2c3c(n(C4OC(CO)C(O)C(O)C4O)c(=S)c2C#N)CC(C)(C)CC3=O)cc1 (centres undefined) | > 100 µM (inactive) | 41.1 µM (inactive) | 80.5 µM (inactive) | > 100 µM (inactive) | 39.6 µM (inactive) | 45.9 | > 100 µM (inactive) | 68.7 µM (inactive) | 65.2 µM (inactive) | 52.2 µM (inactive) | 45.7 µM (inactive) | 52.4 µM (inactive) | 50 µM (inactive) | 80.9 µM (inactive) | > 100 µM (inactive) | 36.5 µM (inactive) | > 100 µM (inactive) | > 100 µM (inactive) | 48.3 µM (inactive) |
| Cc1cc(=O)oc2cc(OC(=O)Nc3ccc(Cl)c(Cl)c3)ccc12 | 25.9 µM (inactive) | 22.5 µM (inactive) | 26 µM (inactive) | 34.9 µM (inactive) | 18.8 µM (inactive) | 20.9 | 25.3 µM (inactive) | 13.6 µM (inactive) | 20.9 µM (inactive) | 18.5 µM (inactive) | 25.6 µM (inactive) | 20.4 µM (inactive) | 17.8 µM (inactive) | 21.6 µM (inactive) | 24.7 µM (inactive) | 17.1 µM (inactive) | 21.4 µM (inactive) | 17.3 µM (inactive) | 18.9 µM (inactive) |
| COc1ccc(C2=Cc3nc2c(-c2ccccc2)c2ccc([nH]2)c(-c2ccccc2)c2nc(c(-c4ccccc4)c4ccc([nH]4)c3-c3ccccc3)C=C2)cc1 | 48.2 µM (inactive) | > 100 µM (inactive) | > 100 µM (inactive) | > 100 µM (inactive) | > 100 µM (inactive) | > 100 | > 100 µM (inactive) | 35.2 µM (inactive) | > 100 µM (inactive) | > 100 µM (inactive) | > 100 µM (inactive) | 30.5 µM (inactive) | > 100 µM (inactive) | > 100 µM (inactive) | > 100 µM (inactive) | > 100 µM (inactive) | > 100 µM (inactive) | – | > 100 µM (inactive) |
| CC(C)(C)OC(=O)N1CCCC1=O | > 10 µM (inactive) | > 10 µM (inactive) | > 10 µM (inactive) | > 10 µM (inactive) | > 10 µM (inactive) | > 10 | > 10 µM (inactive) | > 10 µM (inactive) | > 10 µM (inactive) | > 10 µM (inactive) | > 10 µM (inactive) | > 10 µM (inactive) | > 10 µM (inactive) | > 10 µM (inactive) | > 10 µM (inactive) | > 10 µM (inactive) | > 10 µM (inactive) | – | > 10 µM (inactive) |
| Cn1c([C@H](C#N)C(=O)c2cc(O)ccc2[N+](=O)[O-])nc2ccccc21 | > 100 µM (inactive) | > 100 µM (inactive) | > 100 µM (inactive) | > 100 µM (inactive) | > 100 µM (inactive) | > 100 | > 100 µM (inactive) | > 100 µM (inactive) | 9.51 µM (inactive) | > 100 µM (inactive) | > 100 µM (inactive) | > 100 µM (inactive) | 16 µM (inactive) | > 100 µM (inactive) | > 100 µM (inactive) | 4.2 µM (inactive) | – | > 100 µM (inactive) | > 100 µM (inactive) |
| Cc1cc2nc(N3C(=O)/C(=C/c4ccc(Oc5ccccc5)cc4)N=C3c3ccccc3)sc2cc1C | > 100 µM (inactive) | 40 µM (inactive) | > 100 µM (inactive) | 59.4 µM (inactive) | – | 29.4 | > 100 µM (inactive) | 95.5 µM (inactive) | 19.5 µM (inactive) | 32.1 µM (inactive) | 24.2 µM (inactive) | 64.6 µM (inactive) | 43 µM (inactive) | 23.3 µM (inactive) | > 100 µM (inactive) | 30.2 µM (inactive) | 28.2 µM (inactive) | 24.6 µM (inactive) | 44.6 µM (inactive) |
| O=C(O)/C(O)=C\C(=O)c1ccc(Br)cc1 | > 100 µM (inactive) | > 100 µM (inactive) | > 100 µM (inactive) | > 100 µM (inactive) | – | > 100 | > 100 µM (inactive) | > 100 µM (inactive) | > 100 µM (inactive) | > 100 µM (inactive) | > 100 µM (inactive) | > 100 µM (inactive) | > 100 µM (inactive) | > 100 µM (inactive) | > 100 µM (inactive) | > 100 µM (inactive) | > 100 µM (inactive) | > 100 µM (inactive) | > 100 µM (inactive) |
| Oc1ccc(-c2cc(-c3cc(-c4ccc(O)cc4)no3)on2)cc1 | > 100 µM (inactive) | 13.2 µM (inactive) | > 24.4 µM (inactive) | > 100 µM (inactive) | 4.13 µM (inactive) | 1.98 | – | > 100 µM (inactive) | > 100 µM (inactive) | 41.6 µM (inactive) | 34.2 µM (inactive) | 39.9 µM (inactive) | 17.8 µM (inactive) | > 48 µM (inactive) | > 50.9 µM (inactive) | 1.35 µM (inactive) | > 30.3 µM (inactive) | 19.7 µM (inactive) | 11.5 µM (inactive) |
